What was measured:
Type in all cases: in vivo
[1] = test system: Stagonosporopsis cucurbitacearum; assay: Field assessment of Stagonosporopsis cucurbitacearum (DIDYBR) on watermelon; conditions: 10% SC; for Percent control based on AUDPC, DIDYBR, adjuvant II: Agnique BP420 (50% w/w at 0.3% v/v)
From the text: Field Assessment of Stagonosporopsis Cucurbitacearum (DIDYBR) on Watermelon:
A 10% SC formulation of compound I was tanked mixed with four different adjuvants: Agnique BP420 (50% w/w at 0.3% v/v); Trycol (50% w/w at 0.1% v/v); Ethomeen T18H (50% w/w at 0.2% v/v); and Phase II (50% w/w at 0.2% v/v). A fungicidal treatment containing formulations of compound I, either alone or with adjuvants, was sprayed on watermelon plants four times, the first application approximately 2 months after planting, with the following three applications in 7-10 day intervals. Formulations of compound I were applied at rates of 50, 100, 150 and 200 grams of active ingredient per hectare (g ai/ha). The experimental plots were inoculated with the gummy stem blight pathogen 2 days after the first application. The treatment was part of an experimental trial designed as a randomized complete block with four replications and a plot of approximately 2.5×1.4 m. Formulations of compound I were applied at water volume of 675 L/ha.
Disease severity was recorded as the length of stem lesion and as percent area diseased foliage (3 random plants per plot). Watermelon gummy stem blight infection was assessed twice, the first at 6 days after the first application (6 DAAA), followed by 19 DAAD. Area under the disease progress curve (AUDPC) was calculated for each plot using the sets of recorded severity data. Relative AUDPC (% control based on AUDPC) was calculated as percent of the nontreated control.

[2] = test system: Botrytis cinerea; assay: Greenhouse assessment of Botrytis cinerea (BOTRCI) on broad bean; conditions: inoculated 1-day post application
Procedure: Greenhouse Assessment of Botrytis cinerea (BOTRCI) on Broad Bean: Technical grades of material were dissolved in acetone, which were then mixed with nine volumes of water containing 100 ppm of Triton X-100. The fungicide formulations were applied onto seedling plants using an automated booth sprayer to run off. All sprayed plants were allowed to dry prior to further handling. Test plants were inoculated with Botrytis cinerea 1-day post application. When disease symptoms were fully expressed on the untreated plants, percent diseased area of the plant was assessed on a scale of 0 to 100 percent disease severity. Percent disease control was calculated using the ratio of disease severity on treated plants relative to untreated plants.

[3] = test system: Erysiphe cichoracearum; assay: Field assessment of Erysiphe cichoracearum (ERYSCI) on cucumber, 2 day protectant; conditions: 5% EC + Trycol
Procedure: Field Assessment of Erysiphe Cichoracearum (ERYSCI) on Cucumber:
Assessment of compound I of ERYSCI on cucumbers, in both protectant and curative fashion, was performed in two separate field trials. For the two day protectant test (2DP), a fungicidal treatment containing a 5% EC formulation of compound I plus an adjuvant (Trycol, 50% w/w at 0.2% v/v), was sprayed on cucumber plants (CUMSA) twice, the first application at the fruiting stage 41 days after planting, with the following application after 7 days. Formulations of compound I were applied at rates of 50, 100, and 150 grams of active ingredient per hectare (g ai/ha). The experimental plots were inoculated with the powdery mildew pathogen 2 days after the first application. The treatment was part of an experimental trial designed as a randomized complete block with four replications and a plot of approximately 2×1 m, with formulations of compound I being applied at water volume of 1200 L/ha based on seedling sizes.
Disease severity was assessed as percent diseased area of cucumber foliage per plant (6 plants per plot randomly). Cucumber powdery mildew infection was assessed three times, 7 days after application A (DAAA), and 7 and 14 DAAB. Area under the disease progress curve (AUDPC) was calculated for each plot using the sets of recorded visual infection data. Relative AUDPC (% control based on AUDPC) was calculated as percent of the nontreated control.

[4] = test system: Alternaria brassicicola; assay: Field assessment of Alternaria brassicicola (ALTEBI) on cabbage, 2 day protectant; conditions: 5% EC + Trycol
From the text: Field assessment of Alternaria brassicicola (ALTEBI) on cabbage:
A fungicidal treatment containing Compound I, applied in a 5% EC formulation and tank mixed with an adjuvant (Trycol, 50% w/w at 0.2% v/v), was sprayed three times on head cabbage plants (BRSOL) with the first application at 10-12 LF stage of cabbage. The following applications were done at 7 day intervals will all applications being sprayed at rates of 50, 100, and 150 grams of active ingredient per hectare (g ai/ha). The experimental plots were inoculated with black leaf spot pathogen 2 days after the first application. The treatment was part of an experimental trial designed as a randomized complete block with four replications and a plot of approximately 2×1 m, with compound I being applied at water volume of 800 L/ha.
Disease severity was assessed as the percent diseased area of cabbage bottom foliage (6 plants per plot randomly). Visual infection was assessed three times during the trial at 7 days after each application. Area under the disease progress curve (AUDPC) was calculated for each plot using the sets of recorded severity data. Relative AUDPC (% control based on AUDPC) was calculated as percent of the nontreated control.

[5] = test system: Colletotrichum capsici; assay: Field assessment of Colletotrichum capsici (COLLCA) on hot peppers, 2 day protectant; conditions: 5% EC + Trycol, hot pepper
Procedure: Field Assessment of Colletotrichum capsici (COLLCA) on Hot Peppers:
Assessment of compound I of COLLCA on hot peppers, in both protectant and curative fashion, was performed in two separate field trials. For the 2 day protectant test, a fungicidal treatment containing a 5% EC formulation of compound I plus an adjuvant (Trycol, 50% w/w at 0.2% v/v), was sprayed on hot pepper plants (CPSAN) three times, the first application at the flowering and fruiting stage 43 days after planting, with the following applications in 7 day intervals. Formulations of compound I were applied at rates of 50, 100, and 150 grams of active ingredient per hectare (g ai/ha). The experimental plots were inoculated with the anthracnose pathogen 2 days after the first application. The treatment was part of an experimental trial designed as a randomized complete block with four replications and a plot of approximately 2×1 m, with formulations of compound I being applied at water volume of 1000 L/ha.
Disease severity was assessed as the percent fruit area diseased per plant (6 plants per plot randomly). Anthracnose infection was assessed four times, 7 days after application A (DAAA), 7 DAAB, plus 7 and 14 DAAC. Area under the disease progress curve (AUDPC) was calculated for each plot using the sets of recorded visual infection data. Relative AUDPC (% control based on AUDPC) was calculated as percent of the nontreated control.

SMILES: COc1ccnc(C(=O)N[C@@H](C)C(=O)O[C@@H](C)C(c2ccc(F)cc2)c2ccc(F)cc2)c1OC(C)=O [Compound I, (S)-1,1-bis(4-fluorophenyl)propan-2-yl (3-acetoxy-4-methoxypicolinoyl)-L-alaninate]
- Percent control based on AUDPC, DIDYBR, adjuvant II ([1]; 50 g ai/ha): A (76-100)
- Percent control based on AUDPC, DIDYBR, adjuvant II ([1]; 100 g ai/ha): A (76-100)
- Percent control based on AUDPC, DIDYBR, adjuvant IV ([1]; 100 g ai/ha, Ethomeen T18H (50% w/w at 0.2% v/v)): B (51-75)
- Percent control based on AUDPC, DIDYBR, adjuvant V ([1]; 100 g ai/ha, Phase II (50% w/w at 0.2% v/v)): B (51-75)
- Percent control based on AUDPC, DIDYBR, adjuvant III ([1]; 100 g ai/ha, Trycol (50% w/w at 0.1% v/v)): B (51-75)
- Percent control based on AUDPC, DIDYBR, adjuvant I ([1]; 100 g ai/ha, no adjuvant): B (51-75)
- Percent control based on AUDPC, DIDYBR, adjuvant II ([1]; 150 g ai/ha): A (76-100)
- Percent control based on AUDPC, DIDYBR, adjuvant II ([1]; 200 g ai/ha): A (76-100)
- % Control, BOTRCI ([2]; 6.25 ppm): B (51-75)
- % Control, BOTRCI ([2]; 25 ppm): A (76-100)
- % Control, BOTRCI ([2]; 100 ppm): A (76-100)
- % Control, BOTRCI ([2]; 400 ppm): A (76-100)
- Percent control based on AUDPC, ERYSCI 2 DP ([3]; 50 g ai/ha): A (76-100)
- Percent control based on AUDPC, ERYSCI 2 DP ([3]; 100 g ai/ha): A (76-100)
- Percent control based on AUDPC, ERYSCI 2 DP ([3]; 150 g ai/ha): A (76-100)
- Percent control based on AUDPC, ALTEBI 2 DP ([4]; 50 g ai/ha): C (26-50)
- Percent control based on AUDPC, ALTEBI 2 DP ([4]; 100 g ai/ha): B (51-75)
- Percent control based on AUDPC, ALTEBI 2 DP ([4]; 150 g ai/ha): B (51-75)
- Percent control based on AUDPC, COLLCA 2 DP ([5]; 50 g ai/ha): A (76-100)
- Percent control based on AUDPC, COLLCA 2 DP ([5]; 100 g ai/ha): A (76-100)
- Percent control based on AUDPC, COLLCA 2 DP ([5]; 150 g ai/ha): A (76-100)

— patent US20200085047A1, “Use of an Acyclic Picolinamide Compound as a Fungicide for Control of Phytopathogenic Fungi in Vegetables” (Dow AgroSciences LLC, priority 2017, published 2020)
